Source: ChEMBL document CHEMBL6120978, “Anticancer activity of salinomycin quaternary phosphonium salts” (Eur J Med Chem, 2025)
In brackets after ≈: the same amount, converted by molar mass. Activity calls are given as the source filed them. The rule behind the calls is not given here.

What was measured:
[1] = test system: Mitochondrial membrane; assay: Induction of mitochondrial membrane potential loss in human A549 cells assessed as red fluorescence at IC50 incubated for 48 hrs MitoTrackerRed CMXRos staining based flow cytometry analysis (reference value: 91.1 %); format: cell membranes
[2] = test system: Mitochondrial membrane; assay: Induction of mitochondrial membrane potential loss in human A549 cells assessed as green fluorescence at IC50 incubated for 48 hrs MitoTracker Green FM staining based flow cytometry analysis (reference value: 8.93 %); format: cell membranes
[3] = test system: MDA-MB-231; assay: Induction of apoptosis in human MDA-MB-231 cells assessed as late apoptotic cells at IC50 incubated for 72 hrs by Annexin V-FITC staining based flow cytometry analysis (reference value: 3.07 %); format: functional
[4] = test system: A549; assay: Induction of apoptosis in human A549 cells assessed as early apoptotic cells at IC50 incubated for 72 hrs by Annexin V-FITC staining based flow cytometry analysis (reference value: 1.68 %); format: functional
[5] = Selectivity index, ratio of IC50 for cytotoxicity against human HaCaT cells to IC50 for cytotoxicity against human SW620 cells; format: toxicity, cell-based; conditions: HaCaT cells versus SW620 cells, read-out: Ratio IC50
[6] = Selectivity index, ratio of IC50 for cytotoxicity against chinese hamster V79 cells to IC50 for cytotoxicity against human SW620 cells; format: toxicity, cell-based; conditions: V79 cells versus SW620 cells, read-out: Ratio IC50
[7] = test system: MDA-MB-231; assay: Induction of apoptosis in human MDA-MB-231 cells assessed as early apoptotic cells at IC50 incubated for 72 hrs by Annexin V-FITC staining based flow cytometry analysis (reference value: 4.23 %); format: functional
[8] = test system: Mitochondrial membrane; assay: Induction of mitochondrial membrane potential loss in human MDA-MB-231 cells assessed as green fluorescence at IC50 incubated for 48 hrs MitoTracker Green FM staining based flow cytometry analysis (reference value: 8.86 %); format: cell membranes
[9] = test system: MDA-MB-231; assay: Induction of apoptosis in human MDA-MB-231 cells assessed as necrotic cells at IC50 incubated for 72 hrs by Annexin V-FITC staining based flow cytometry analysis (reference value: 1.17 %); format: functional
[10] = Selectivity index, ratio of IC50 for cytotoxicity against human HaCaT cells to IC50 for cytotoxicity against human MDA-MB-231 cells; format: toxicity, cell-based; conditions: HaCaT cells versus MDA-MB-231 cells, read-out: Ratio IC50
[11] = test system: Lipid bilayer; assay: Induction of current generation in azolectin bilayer membrane upto 10 uM in presence of HEPES buffer by electrophysiology technique; format: cell membranes
[12] = test system: A549; assay: Induction of mitochondrial respiration in human A549 cells assessed as oxygen consumption rate at 0.1 to 10 uM by Oxygraph-2K system; format: functional, cell-based; conditions: dose 0.1-10 µM
[13] = test system: PC-3; assay: Cytotoxicity against human PC-3 cells incubated for 72 hrs by MTT assay; format: functional, cell-based; conditions: PC-3, 72 h
[14] = test system: MDA-MB-231; assay: Effect on mitochondrial mass in human MDA-MB-231 cells assessed as increase in mean fluorescence intensity at IC50 incubated for 48 hrs by MitoTracker Green FM staining based flow cytometry analysis; format: functional, cell-based
[15] = test system: A549; assay: Induction of apoptosis in human A549 cells assessed as late apoptotic cells at IC50 incubated for 72 hrs by Annexin V-FITC staining based flow cytometry analysis (reference value: 1.86 %); format: functional
[16] = Selectivity index, ratio of IC50 for cytotoxicity against chinese hamster V79 cells to IC50 for cytotoxicity against human PC-3 cells; format: toxicity, cell-based; conditions: V79 cells versus PC-3 cells, read-out: Ratio IC50
[17] = test system: A549; assay: Effect on mitochondrial mass in human A549 cells assessed as increase in mean fluorescence intensity at IC50 incubated for 48 hrs by MitoTracker Green FM staining based flow cytometry analysis; format: functional, cell-based
[18] = test system: A549; assay: Induction of ROS generation of human A549 cells at IC50 incubated for 6 hrs by CellROX Green staining based spectrofluorometer analysis; format: functional, cell-based
[19] = test system: MDA-MB-231; assay: Induction of apoptosis in human MDA-MB-231 cells assessed as viable cells at IC50 incubated for 72 hrs by Annexin V-FITC staining based flow cytometry analysis (reference value: 91.53 %); format: functional
[20] = test system: Lipid bilayer; assay: Induction of ionic transport in azolectin bilayer membrane assessed as specific channel-like structure formation in presence of HEPES buffer by electrophysiology technique
[21] = test system: Staphylococcus epidermidis; assay: Antimicrobial activity against Staphylococcus epidermidis ATCC 12228 incubated for 18 hrs by twofold microdilution method; format: functional
[22] = Selectivity index, ratio of IC50 for cytotoxicity against chinese hamster V79 cells to IC50 for cytotoxicity against human SW480 cells; format: toxicity, cell-based; conditions: V79 cells versus SW480 cells, read-out: Ratio IC50
[23] = test system: A549; assay: Induction of apoptosis in human A549 cells assessed as viable cells at IC50 incubated for 72 hrs by Annexin V-FITC staining based flow cytometry analysis (reference value: 95.49 %); format: functional
[24] = test system: Staphylococcus epidermidis; assay: Antimicrobial activity against Staphylococcus epidermidis ATCC 35984 incubated for 18 hrs by twofold microdilution method; format: functional
[25] = Cytotoxicity against chinese hamster V79 cells incubated for 72 hrs by MTT assay; format: toxicity, cell-based, Cricetulus griseus
[26] = test system: A549; assay: Cytotoxicity against human A549 cells incubated for 72 hrs by MTT assay; format: functional, cell-based; conditions: A549, 72 h
[27] = Selectivity index, ratio of IC50 for cytotoxicity against chinese hamster V79 cells to IC50 for cytotoxicity against human MDA-MB-231 cells; format: toxicity, cell-based; conditions: V79 cells versus MDA-MB-231 cells, read-out: Ratio IC50
[28] = Selectivity index, ratio of IC50 for cytotoxicity against human HaCaT cells to IC50 for cytotoxicity against human A549 cells; format: toxicity, cell-based; conditions: HaCaT cells versus A549 cells, read-out: Ratio IC50
[29] = test system: Staphylococcus aureus; assay: Antimicrobial activity against Staphylococcus aureus ATCC 25923 incubated for 18 hrs by twofold microdilution method; format: functional
[30] = Selectivity index, ratio of IC50 for cytotoxicity against human HaCaT cells to IC50 for cytotoxicity against human PC-3 cells; format: toxicity, cell-based; conditions: HaCaT cells versus PC-3 cells, read-out: Ratio IC50
[31] = test system: Staphylococcus aureus; assay: Antimicrobial activity against Staphylococcus aureus ATCC 6538 incubated for 18 hrs by twofold microdilution method; format: functional
[32] = test system: Escherichia coli; assay: Antimicrobial activity against Escherichia coli ATCC 25922 incubated for 18 hrs by twofold microdilution method; format: functional
[33] = test system: Staphylococcus aureus; assay: Antimicrobial activity against Staphylococcus aureus ATCC 29213 incubated for 18 hrs by twofold microdilution method; format: functional
[34] = test system: SW-620; assay: Cytotoxicity against human SW620 cells incubated for 72 hrs by MTT assay; format: functional, cell-based; conditions: SW-620, 72 h
[35] = test system: MDA-MB-231; assay: Cytotoxicity against human MDA-MB-231 cells incubated for 72 hrs by MTT assay; format: functional, cell-based; conditions: MDA-MB-231, 72 h
[36] = Selectivity index, ratio of IC50 for cytotoxicity against chinese hamster V79 cells to IC50 for cytotoxicity against human A549 cells; format: toxicity, cell-based; conditions: V79 cells versus A549 cells, read-out: Ratio IC50
[37] = test system: Lipid bilayer; assay: Induction of ionic transport in azolectin bilayer membrane assessed as membrane rupture in presence of HEPES buffer by electrophysiology technique
[38] = test system: Mitochondrial membrane; assay: Induction of mitochondrial membrane potential loss in human MDA-MB-231 cells assessed as red fluorescence at IC50 incubated for 48 hrs MitoTrackerRed CMXRos staining based flow cytometry analysis (reference value: 91.1 %); format: cell membranes
[39] = test system: A549; assay: Induction of apoptosis in human A549 cells assessed as necrotic cells at IC50 incubated for 72 hrs by Annexin V-FITC staining based flow cytometry analysis (reference value: 0.97 %); format: functional
[40] = test system: Staphylococcus aureus; assay: Antimicrobial activity against Staphylococcus aureus NCTC 4163 incubated for 18 hrs by twofold microdilution method; format: functional
[41] = Selectivity index, ratio of IC50 for cytotoxicity against human HaCaT cells to IC50 for cytotoxicity against human SW480 cells; format: toxicity, cell-based; conditions: HaCaT cells versus SW480 cells, read-out: Ratio IC50
[42] = test system: MDA-MB-231; assay: Induction of cell cycle arrest in human MDA-MB-231 cells assessed as inhibition of cell division at IC50 incubated for 24 hrs by propidium iodide staining based flow cytometry analysis; format: functional
[43] = Cytotoxicity against human HaCaT cells incubated for 72 hrs by MTT assay; format: toxicity, cell-based
[44] = test system: Lipid bilayer; assay: Induction of ionic transport in azolectin bilayer membrane assessed as irregular disturbance in membrane permeability in presence of HEPES buffer by electrophysiology technique
[45] = test system: MDA-MB-231; assay: Induction of ROS generation of human MDA-MB-231 cells at IC50 incubated for 6 hrs by CellROX Green staining based spectrofluorometer analysis; format: functional, cell-based
[46] = test system: SW480; assay: Cytotoxicity against human SW480 cells incubated for 72 hrs by MTT assay; format: functional, cell-based; conditions: SW480, 72 h
[47] = test system: Pseudomonas aeruginosa; assay: Antimicrobial activity against Pseudomonas aeruginosa ATCC 15442 incubated for 18 hrs by twofold microdilution method; format: functional
[48] = test system: A549; assay: Effect on mitochondrial function in human A549 cells assessed as change in mean fluorescence intensity at IC50 incubated for 48 hrs by MitoTracker Red CMXRos staining based flow cytometry analysis; format: functional, cell-based

## CC[C@@H](C(=O)[C@@H](C)[C@@H](O)[C@H](C)[C@@H]1O[C@@H]([C@@H](CC)C(=O)O)CC[C@@H]1C)[C@H]1O[C@]2(C=C[C@@H](O)[C@]3(CC[C@@](C)([C@H]4CC[C@](O)(CC)[C@H](C)O4)O3)O2)[C@H](C)C[C@@H]1C [SALINOMYCIN]
[1]
  Activity: 91.2%
[2]
  Activity: 18.8%
[3]
  Activity: 11.49%
[4]
  Activity: 9.72%
[5]
  selectivity ratio: 0.4
[6]
  selectivity ratio: 0.8
[7]
  Activity: 8.6%
[8]
  Activity: 23.4%
[9]
  Activity: 2.97%
[10]
  selectivity ratio: 0.66
[11]
  Activity: inactive
[12]
  Activity: inactive
[13]
  IC50: 3 µM
[14]
  Activity: Active; Slight Increase In Mfi Is Observed
[15]
  Activity: 2.05%
[16]
  selectivity ratio: 0.5
[17]
  Activity: Active; Slight Increase In Mfi Is Observed
[18]
  Activity: Active; Slight Insignificant Increase In Ros Level Was Observed
[19]
  Activity: 76.94%
[20]
  Activity: inactive
[21]
  MIC: 0.5 mg/L (≈ 0.666 µM)
[22]
  selectivity ratio: 1.1
[23]
  Activity: 84.56%
[24]
  MIC: 1 mg/L (≈ 1.33 µM)
[25]
  IC50 at 72 h: 1.44 µM
[26]
  IC50: 1.86 µM
[27]
  selectivity ratio: 1.2
[28]
  selectivity ratio: 0.4
[29]
  MIC: 0.5 mg/L (≈ 0.666 µM)
[30]
  selectivity ratio: 0.3
[31]
  MIC: 0.5 mg/L (≈ 0.666 µM)
[32]
  MIC: > 256 mg/L
[33]
  MIC: 0.5 mg/L (≈ 0.666 µM)
[34]
  IC50: 1.81 µM
[35]
  IC50: 1.22 µM
[36]
  selectivity ratio: 0.8
[37]
  Activity: inactive
[38]
  Activity: 76.7%
[39]
  Activity: 3.67%
[40]
  MIC: 0.5 mg/L (≈ 0.666 µM)
[41]
  selectivity ratio: 0.6
[42]
  Activity: Active
[43]
  IC50 at 72 h: 0.8 µM
[44]
  Activity: inactive
[45]
  Activity: Active; Slight Insignificant Increase In Ros Level Was Observed
[46]
  IC50: 1.36 µM
[47]
  MIC: > 256 mg/L
[48]
  Activity: inactive
